# Test results published in patent publication US20050080113A1, “Medicinal compositions” (priority 2001, published 2005).
row,Compound,melting point
1,"Cc1cccc(-c2nc(N3CCN(c4ccccc4)C3=O)sc2-c2ccnc(C)c2)c1 [H 67, 1 [4 (3 methylphenyl)-5 (2 methyl-4 pyridyl)-1,3 thiazol-2-yl]-3 phenylimidazolidin-2 one]",180 to 182 °C
2,"Cc1cccc(-c2nc(-c3ccc(S(C)(=O)=O)cc3)sc2-c2cc[n+]([O-])c(C)c2)c1 [H 68-1, 4 [4 (3 methylphenyl)-2-(4 methylsulfonylphenyl)-1,3 thiazol-5 yl]-2 methylpyridine N-oxide]",197 to 198 °C
3,"CCc1nc(-c2cccc(C)c2)c(-c2ccnc(CC#N)c2)s1 [H 71, 5 (2 cyanomethyl-4 pyridyl)-2 ethyl-4 (3 methylphenyl)-1,3-thiazole]",68 to 69 °C
4,"Cc1cccc(-c2nc(-c3ccc(S(C)(=O)=O)cc3)sc2-c2ccnc(CO)c2)c1 [H 72, 4 [4 (3 methylphenyl)-2 (4 methylsulfonylphenyl)-1,3 thiazol-5 yl]-2 pyridylmethanol]",172 to 173 °C
5,"CCc1nc(-c2cccc(Br)c2)c(-c2ccnc(NC(=O)OC(C)(C)C)c2)s1 [H 75-1, 4 (3 bromophenyl)-5 [2-(tert-butoxycarbonylamino)-4 pyridyl]-2 ethyl-1,3 thiazole]",172 to 174 °C
6,"CCc1nc(-c2cccc(Br)c2)c(-c2ccnc(N)c2)s1 [H 75-2, 4 [4 (3 bromophenyl)-2-ethyl-1,3 thiazol-5 yl]-2 pyridylamine]",132 to 134 °C
7,"CCc1nc(-c2cccc(C#N)c2)c(-c2ccnc(N)c2)s1 [H 76, 4 [4 (3 cyanophenyl)-2 ethyl-1,3 thiazol-5 yl]-2 pyridylamine]",178 to 179 °C
8,"CCc1nc(-c2cccc(C(=O)O)c2)c(-c2ccnc(N)c2)s1 [H 77, 3 [5 (2 amino-4 pyridyl)-2 ethyl-1,3 thiazol-4 yl]benzoic acid]",273 to 274 °C
9,"CCc1nc(-c2cccc(C(=O)OC)c2)c(-c2ccnc(N)c2)s1 [H 78, methyl 3 [5 (2 amino-4 pyridyl)-2 ethyl-1,3 thiazol-4-yl]benzoate]",173 to 174 °C
10,"CCc1nc(-c2ccccc2)c(-c2ccnc(NC(=O)OC(C)(C)C)c2)s1 [H 79-1, 5 [2 (tert-butoxycarbonylamino)-4 pyridyl]-2 ethyl-4 phenyl-1,3 thiazole]",154 to 155 °C
11,"CC(C)(C)OC(=O)N1CCC(c2nc(-c3cccc(Cl)c3)c(-c3ccnc(N)c3)s2)CC1 [H 80, 4 [2 (1 tert-butoxycarbonylpiperidin-4 yl)-4 (3 chlorophenyl)-1,3 thiazol-5 yl]-2 pyridylamine]",143 to 145 °C
12,"CCc1nc(-c2ccccc2)c(-c2ccnc(NC(C)=O)c2)s1 [H 82-1, N-[4 (2 ethyl-4 phenyl-1,3-thiazol-5 yl)-2 pyridyl]acetamide]",175 to 176 °C
13,"CCc1nc(-c2ccc(F)cc2)c(-c2ccnc(NC(C)=O)c2)s1 [H 82-2, N-[4 [2 ethyl-4 (4-fluorophenyl)-1,3 thiazol-5 yl]-2 pyridyl]acetamide]",190 to 191 °C
14,"CCc1nc(-c2cccc(C(F)(F)F)c2)c(-c2ccnc(NC(C)=O)c2)s1 [H 82-3, N-[4 [2 ethyl-4 (3-trifluoromethylphenyl)-1,3 thiazol-5 yl]-2 pyridyl]acetamide]",146 to 147 °C
15,"CCc1nc(-c2ccc(F)c(C)c2)c(-c2ccnc(NC(C)=O)c2)s1 [H 82-4, N-[4 [2 ethyl-4 (4 fluoro-3 methylphenyl)-1,3 thiazol-5 yl]-2 pyridyl]acetamide]",142 to 143 °C
16,"CCc1nc(-c2cccc(F)c2)c(-c2ccnc(NC(C)=O)c2)s1 [H 82-5, N-[4 [2 ethyl-4 (3-fluorophenyl)-1,3 thiazol-5 yl]-2 pyridyl]acetamide]",141 to 142 °C
17,"CCc1nc(-c2ccc(Cl)cc2)c(-c2ccnc(NC(C)=O)c2)s1 [H 82-6, N-[4 [4 (4 chlorophenyl)-2-ethyl-1,3 thiazol-5 yl]-2 pyridyl]acetamide]",190 to 191 °C
18,"CCc1cccc(-c2nc(CC)sc2-c2ccnc(NC(C)=O)c2)c1 [H 82-7, N-[4 [2 ethyl-4 (3-ethylphenyl)-1,3 thiazol-5 yl]-2 pyridyl]acetamide]",112 to 113 °C
19,"CCc1nc(-c2cccc(C(C)C)c2)c(-c2ccnc(NC(C)=O)c2)s1 [H 82-8, N-[4 [2 ethyl-4 [3 (1-methylethyl)phenyl]-1,3 thiazol-5 yl]-2 pyridyl]acetamide]",116 to 117 °C
20,"CCCc1cccc(-c2nc(CC)sc2-c2ccnc(NC(C)=O)c2)c1 [H 82-9, N-[4 [2 ethyl-4 (3-propylphenyl)-1,3 thiazol-5 yl]-2 pyridyl]acetamide]",121 to 122 °C
21,"CC(=O)Nc1cc(-c2sc(C)nc2-c2cccc(C)c2)ccn1 [H 82-10, N-[4 [2 methyl-4 (3-methylphenyl)-1,3 thiazol-5 yl]-2 pyridyl]acetamide]",162 to 163 °C
22,"CC(=O)Nc1cc(-c2scnc2-c2cccc(C)c2)ccn1 [H 82-11, N-[4 [4 (3 methylphenyl)-1,3 thiazol-5 yl]-2 pyridyl]acetamide]",149 to 150 °C
23,"CSc1ccc(-c2nc(-c3cccc(C)c3)c(-c3ccnc(NC(C)=O)c3)s2)cc1 [H 82-12, N-[4 [4 (3 methylphenyl)-2 [4 (methylthio)phenyl]-1,3 thiazol-5 yl]-2 pyridyl]acetamide]",181 to 182 °C
24,"CCCC(=O)Nc1cc(-c2sc(CC)nc2-c2cccc(Cl)c2)ccn1 [H 86, N-[4 [4 (3 chlorophenyl)-2-ethyl-1,3 thiazol-5 yl]-2 pyridyl]butyramide]",119 to 120 °C
25,"CCc1nc(-c2cccc(C)c2)c(-c2ccnc(NC(=O)CC3CCCC3)c2)s1 [H 89, N-[4 [2 ethyl-4 (3-methylphenyl)-1,3 thiazol-5 yl]-2 pyridyl]cyclopentylacetamide]",85 to 86 °C
26,"CC(=O)Nc1cc(-c2sc(C3CCN(C(C)=O)CC3)nc2-c2cccc(Cl)c2)ccn1 [H 93, N-[4 [2 (1 acetylpiperidin-4 yl)-4 (3 chlorophenyl)-1,3-thiazol-5 yl]-2 pyridyl]acetamide]",160 to 161 °C
27,"CCC(=O)Nc1cc(-c2sc(C3CCN(C(C)=O)CC3)nc2-c2cccc(Cl)c2)ccn1 [H 94, N-[4 [2 (1 acetylpiperidin-4-yl)-4 (3 chlorophenyl)-1,3 thiazol-5 yl]-2-pyridyl]propionamide]",174 to 175 °C

# The remaining lines, values ahead:
row,melting point,Compound
1,139 to 140 °C,"CCC(=O)Nc1cc(-c2sc(CC)nc2-c2ccccc2)ccn1 [H 84-1, N-[4 (2 ethyl-4 phenyl-1,3-thiazol-5 yl)-2 pyridyl]propionamide]"
2,156 to 157 °C,"CCC(=O)Nc1cc(-c2sc(CC)nc2-c2ccc(F)cc2)ccn1 [H 84-2, N-[4 [2 ethyl-4 (4-fluorophenyl)-1,3 thiazol-5 yl]-2 pyridyl]propionamide]"
3,126 to 127 °C,"CCC(=O)Nc1cc(-c2sc(CC)nc2-c2cccc(C(F)(F)F)c2)ccn1 [H 84-3, N-[4 [2 ethyl-4 (3-trifluoromethylphenyl)-1,3 thiazol-5 yl]-2 pyridyl]propionamide]"
4,105 to 107 °C,"CCC(=O)Nc1cc(-c2sc(CC)nc2-c2ccc(F)c(C)c2)ccn1 [H 84-4, N-[4 [2 ethyl-4 (4 fluoro-3 methylphenyl)-1,3 thiazol-5 yl]-2 pyridyl]propionamide]"
5,121 to 122 °C,"CCC(=O)Nc1cc(-c2sc(CC)nc2-c2cccc(F)c2)ccn1 [H 84-5, N-[4 [2 ethyl-4 (3-fluorophenyl)-1,3 thiazol-5 yl]-2 pyridyl]propionamide]"
6,152 to 153 °C,"CCC(=O)Nc1cc(-c2sc(CC)nc2-c2ccc(Cl)cc2)ccn1 [H 84-6, N-[4 [4 (4 chlorophenyl)-2-ethyl-1,3 thiazol-5 yl]-2 pyridyl]propionamide]"
7,93 to 94 °C,"CCC(=O)Nc1cc(-c2sc(CC)nc2-c2cccc(C(C)C)c2)ccn1 [H 84-7, N-[4 [2 ethyl-4 [3 (1-methylethyl)phenyl]-1,3 thiazol-5 yl]-2 pyridyl]propionamide]"
8,124 to 125 °C,"CCCc1cccc(-c2nc(CC)sc2-c2ccnc(NC(=O)CC)c2)c1 [H 84-8, N-[4 [2 ethyl-4 (3-propylphenyl)-1,3 thiazol-5 yl]-2 pyridyl]propionamide]"
9,81 to 82 °C,"CCCCC(=O)Nc1cc(-c2sc(CC)nc2-c2cccc(C)c2)ccn1 [H 87-1, N-[4 [2 ethyl-4 (3-methylphenyl)-1,3 thiazol-5 yl]-2 pyridyl]valeramide]"
10,84 to 85 °C,"CCCCCC(=O)Nc1cc(-c2sc(CC)nc2-c2cccc(C)c2)ccn1 [H 87-2, N-[4 [2 ethyl-4 (3-methylphenyl)-1,3 thiazol-5 yl]-2 pyridyl]hexanamide]"
11,109 to 110 °C,"CCCCC(=O)Nc1cc(-c2sc(CC)nc2-c2cccc(Cl)c2)ccn1 [H 88-1, N-[4 [4 (3 chlorophenyl)-2-ethyl-1,3 thiazol-5 yl]-2 pyridyl]valeramide]"
12,114 to 115 °C,"CCCCCC(=O)Nc1cc(-c2sc(CC)nc2-c2cccc(Cl)c2)ccn1 [H 88-2, N-[4 [4 (3 chlorophenyl)-2-ethyl-1,3 thiazol-5 yl]-2 pyridyl]hexanamide]"
13,121 to 122 °C,"CCc1nc(-c2cccc(Cl)c2)c(-c2ccnc(NC(=O)CC3CCCC3)c2)s1 [H 90-1, N-[4 [4 (3 chlorophenyl)-2-ethyl-1,3 thiazol-5 yl]-2 pyridyl]cyclopentylacetamide]"
14,149 to 150 °C,"CCc1nc(-c2ccc(Cl)cc2)c(-c2ccnc(NC(=O)CC3CCCC3)c2)s1 [H 90-2, N-[4 [4 (4 chlorophenyl)-2-ethyl-1,3 thiazol-5 yl]-2 pyridyl]cyclopentylacetamide]"
15,222 to 223 °C,"CC(=O)Nc1cc(-c2sc(-c3ccc(S(C)(=O)=O)cc3)nc2-c2cccc(C)c2)ccn1 [H 98-1, N-[4 [4 (3 methylphenyl)-2-(4 methylsulfonylphenyl)-1,3 thiazol-5 yl]-2 pyridyl]acetamide]"
16,238 to 239 °C,"CCC(=O)Nc1cc(-c2sc(-c3ccc(S(C)(=O)=O)cc3)nc2-c2cccc(C)c2)ccn1 [H 98-2, N-[4 [4 (3 methylphenyl)-2-(4 methylsulfonylphenyl)-1,3 thiazol-5 yl]-2 pyridyl]propionamide]"
